Test system: healthy adult males
Assay: Incremental loading exercise test with bicycle
Format: in vivo, human
Procedure: For 25 healthy adult males, 3 dosages of kaempferol-containing cookie-shaped foods (containing 2.5 mg, 10 mg, or 25 mg of kaempferol, respectively) and a placebo cookie-shaped food (kaempferol-free) were used as test foods, and a once-a-day ingestion for consecutive 8 days were repeated four times by the crossover method. 3 hours after a test food ingestion on day 1 (Single ingestion) and on day 8 (Consecutive ingestion), an incremental loading exercise with bicycle was performed while sampling the exhaled gas to determine the oxygen consumption. The Heart rate and the rating of perceived exertion were monitored during exercise. Dynamic/kinetic visual acuity was measured before and after the exercise. Details of each endpoint are given below. Oxygen consumption (VO2) (mL/min/kg) was calculated from the difference between the amount of oxygen in the inhaled gas (atmosphere) and the amount of oxygen in the exhaled gas. When a weight of the pedal approaches a subject's limit during incremental loading exercise with bicycle, a heart rate (HR) is maximized. The increase in heart rate from the resting heart rate to the maximum heart rate was defined as 100% of exercise intensity, and the oxygen consumption (VO2) was plotted at each exercise intensity. That is, for example, an exercise intensity of 50% HR is calculated by the following equation: 100×(x−Resting heart rate)/(Maximum heart rate−Resting heart rate)=50% HR, and the oxygen consumption (VO2) in which the heart rate is the “x” means “oxygen consumption (VO2) at an exercise intensity of 50% HR”. Oxygen consumption efficiency was calculated by the following equation. Oxygen consumption efficiency (VO2/VE)=oxygen consumption/ventilation The oxygen uptake efficiency slope (OUES) was calculated using the ventilation and VO2 every 1 min from the beginning of the incremental loading exercise. Specifically, a graph of linearity was obtained by plotting “logarithmic value of ventilation (VE)” on the horizontal axis and “VO2” on the vertical axis, and the slope of the linear function graph was defined as OUES. For details, see Non-Patent Document 5. Exercise intensity (% HR) and rating of perceived exertion (RPE) at the oxygen consumption (VO2) of 14 mL/min/kg and 24.5 mL/min/kg in incremental loading exercise (the levels of stair climbing and jogging, respectively) were evaluated. The calculation methods for oxygen consumption (VO2) and exercise intensity (% HR) are the same as those described above. The perceived exertion was rated by the subject according to the following table at 1-minute intervals from the beginning of the incremental loading exercise, and the scales rated by each subject were averaged to give the rating of perceived exertion (RPE).

[1] = single and consecutive ingestion, at VO2 of 14 mL/min/kg (stair climbing) and 24.5 mL/min/kg (jogging), compared with no intake of kaempferol
[2] = single and consecutive ingestion, incremental loading exercise, compared with no intake of kaempferol

## O=c1c(O)c(-c2ccc(O)cc2)oc2cc(O)cc(O)c12 [kaempferol]
Single and consecutive ingestion, after initiation of incremental loading exercise, compared with no intake of kaempferol
  oxygen consumption efficiency (VO2/VE): increased oxygen consumption efficiency
[1]
  exercise intensity (% HR) at given oxygen consumption: decreased exercise intensity
  rating of perceived exertion (RPE): decreased rating of perceived exertion
[2]
  maximum exercise load (Pedal Weight (watt)): increased maximum exercise load
  maximum oxygen consumption (VO2peak): increased maximum oxygen consumption
  oxygen uptake efficiency slope (OUES): increased oxygen uptake efficiency slope
Single ingestion (day 1) and consecutive ingestion (day 8), 3 hours after ingestion, exercise intensities 50-100% HR, compared with no intake of kaempferol (placebo)
  oxygen consumption (VO2) at each exercise intensity: increased oxygen consumption at all exercise intensities

From patent US20220151276A1, “COMPOSITION CONTAINING PLANT-DERIVED EXTRACT AND/OR PLANT-DERIVED PROCESSED PRODUCT” (OTSUKA PHARMACEUTICAL CO., LTD., priority 2019, published 2022)
